Read-outs that look alike come from different tables or passages of the source. Numbered stars: 1 amine (or outer) side, 2 acyl side, 3 side chain; on linkers, the order of the positions; unused ones are H or OH. Bridge positions count the residues as written; N and C are the ends. Square brackets hold non-standard residues; d marks the D form. Peptide text beside a SMILES is read from it. I, II: the chains in the order shown. * marks the point of attachment. C16 diacid = O=C(O)CCCCCCCCCCCCCCC(=O)*; Sebacoyl = O=C(CCCCCCCCC(=O)[*:2])[*:1]; 2Nal = N[C@@H](Cc1ccc2ccccc2c1)C(=O)O; Suberoyl = O=C(CCCCCCC(=O)[*:2])[*:1]; Glutaryl = O=C(CCCC(=O)[*:2])[*:1]; dNMeOrn = CN[C@H](CCCN)C(=O)O; Suc = O=C(CCC(=O)[*:2])[*:1]; X3 = NC(=O)CCCC(=O)*
Target: human CXCR4 (Homo sapiens, UniProt P61073)
Assay: Competitive receptor binding assay on Jurkat cells with 125I-CPCR4 as tracer
Design: Jurkat cells that endogenously express the CXCR4 receptor; endogenous in cells; host or cells: Jurkat cells
Procedure: For receptor binding assays cells were resuspended in PBS/0.2% BSA. A total of 200 μl of the suspension containing 400,000 Jurkat cells were incubated with 25 μl of the tracer solution (containing 3.1 kBq, approx. 0.1 nM) and 25 μl of the diluent or the competitor at different concentrations. […] After shaking for 2 h at room temperature, the incubation was terminated by centrifugation at 1300 rpm for 5 min. Cell pellets were washed once with cold PBS followed by a second centrifugation step. Cell bound radioactivity was determined by using a gamma counter. Experiments were repeated 2-3 times in triplicates. IC50 values of the compounds were calculated by nonlinear regression using GraphPad Prism (GraphPad Prism 4.0 Software, Inc., San Diego, Calif., USA). Each data point is the average of three determinations.

[1] = Table 10, dimers and monomers, read-out: IC50
[2] = Table 4, Orn-Nδ and/or Orn-Nα-modified pentapeptides, read-out: IC50

Sequence of human CXCR4 (P61073 whole entry): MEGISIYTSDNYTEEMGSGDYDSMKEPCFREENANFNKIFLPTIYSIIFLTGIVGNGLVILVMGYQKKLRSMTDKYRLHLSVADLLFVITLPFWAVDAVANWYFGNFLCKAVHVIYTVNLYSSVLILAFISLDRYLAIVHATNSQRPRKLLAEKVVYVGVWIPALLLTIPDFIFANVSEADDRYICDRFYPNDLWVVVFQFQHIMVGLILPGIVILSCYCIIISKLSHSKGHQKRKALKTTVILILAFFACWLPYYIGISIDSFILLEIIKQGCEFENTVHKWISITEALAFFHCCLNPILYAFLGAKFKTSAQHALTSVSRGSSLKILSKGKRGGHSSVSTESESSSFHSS

Row | IC50 [1] [nM] | SMILES | also measured
1 | 66.5 | CN1C(=O)[C@@H](Cc2ccc(O)cc2)NC(=O)CNC(=O)[C@H](Cc2ccc3ccccc3c2)NC(=O)[C@H](CCCNC(=N)N)NC(=O)[C@H]1CCCNC(=O)CCCC(N)=O [Monomer + Glutaric acid monoamide] (cyclo([2Nal]G[dY][dNMeOrn](X3)R)) | 
2 | 92.1 | CN1C(=O)[C@@H](Cc2ccc(O)cc2)NC(=O)CNC(=O)[C@H](Cc2ccc3ccccc3c2)NC(=O)[C@H](CCCNC(=N)N)NC(=O)[C@H]1CCCNC(=O)C[C@H](NC(=O)CCCCCNC(=O)CN1CCN(CC(=O)O)CCN(CC(=O)O)CCN(CC(=O)O)CC1)C(=O)NCCC[C@@H]1C(=O)N[C@@H](CCCNC(=N)N)C(=O)N[C@@H](Cc2ccc3ccccc3c2)C(=O)NCC(=O)N[C@H](Cc2ccc(O)cc2)C(=O)N1C [NMe-D-Orn DOTAAhxAsp] | 
3 | 33.5 | CN1C(=O)[C@@H](Cc2ccc(O)cc2)NC(=O)CNC(=O)[C@H](Cc2ccc3ccccc3c2)NC(=O)[C@H](CCCNC(=N)N)NC(=O)[C@H]1CCCNC(=O)CCCCCCCCCCCCCCC(=O)NCCC[C@@H]1C(=O)N[C@@H](CCCNC(=N)N)C(=O)N[C@@H](Cc2ccc3ccccc3c2)C(=O)NCC(=O)N[C@H](Cc2ccc(O)cc2)C(=O)N1C [NMe-D-Orn n = 14] (I: cyclo([2Nal]G[dY][dNMeOrn]R) / II: cyclo([2Nal]G[dY][dNMeOrn]R); linker I:4-II:4 via C16 diacid (inferred); ring closure inferred) | 
4 | 37.9 | CN1C(=O)[C@@H](Cc2ccc(O)cc2)NC(=O)CNC(=O)[C@H](Cc2ccc3ccccc3c2)NC(=O)[C@H](CCCNC(=N)N)NC(=O)[C@H]1CCCNC(=O)C[C@H](NC(=O)CCCCCNC(=O)CN1CCN(CC(=O)O)CCN(CC(=O)O)CCN(CC(=O)O)CC1)C(=O)NCCC[C@@H]1C(=O)N[C@@H](CCCNC(=N)N)C(=O)N[C@@H](Cc2ccc3ccccc3c2)C(=O)NCC(=O)N[C@H](Cc2ccc(O)cc2)C(=O)N1C [NMe-D-Orn InDOTAAhxAsp] | 
5 | 2.26 | CN1C(=O)[C@@H](Cc2ccc(O)cc2)NC(=O)CNC(=O)[C@H](Cc2ccc3ccccc3c2)NC(=O)[C@H](CCCN=C(N)N)NC(=O)[C@H]1CCCNC(=O)CCCCCCCCC(=O)NCCC[C@@H]1C(=O)N[C@@H](CCCN=C(N)N)C(=O)N[C@@H](Cc2ccc3ccccc3c2)C(=O)NCC(=O)N[C@H](Cc2ccc(O)cc2)C(=O)N1C [NMe-D-Orn n = 8] (I: cyclo([2Nal]G[dY][dNMeOrn]R) / II: cyclo([2Nal]G[dY][dNMeOrn]R); linker I:4-II:4 via Sebacoyl) | IC50 (read-out: IC50 (affinity)): 2.12 ± 0.9 nM
6 | 6.61 | CN1C(=O)[C@@H](Cc2ccc(O)cc2)NC(=O)CNC(=O)[C@H](Cc2ccc3ccccc3c2)NC(=O)[C@H](CCCNC(=N)N)NC(=O)[C@H]1CCCNC(=O)CCC(=O)NCCC[C@@H]1C(=O)N[C@@H](CCCNC(=N)N)C(=O)N[C@@H](Cc2ccc3ccccc3c2)C(=O)NCC(=O)N[C@H](Cc2ccc(O)cc2)C(=O)N1C [NMe-D-Orn n = 2] (I: cyclo([2Nal]G[dY][dNMeOrn]R) / II: cyclo([2Nal]G[dY][dNMeOrn]R); linker I:4-II:4 via Suc) | 
7 | 5.48 | CN1C(=O)[C@@H](Cc2ccc(O)cc2)NC(=O)CNC(=O)[C@H](Cc2ccc3ccccc3c2)NC(=O)[C@H](CCCN=C(N)N)NC(=O)[C@H]1CCCNC(=O)CNC(=O)CC(=O)NCC(=O)NCCC[C@@H]1C(=O)N[C@@H](CCCN=C(N)N)C(=O)N[C@@H](Cc2ccc3ccccc3c2)C(=O)NCC(=O)N[C@H](Cc2ccc(O)cc2)C(=O)N1C [NMe-D-Orn + Gly n = 1] | 

More lines, now with the values behind:

Row | SMILES | IC50 [1] [nM] | also measured
8 | CN1C(=O)[C@@H](Cc2ccc(O)cc2)NC(=O)CNC(=O)[C@H](Cc2ccc3ccccc3c2)NC(=O)[C@H](CCCNC(=N)N)NC(=O)[C@H]1CCCNC(=O)CNC(=O)C[C@H](NC(=O)CCCCCNC(=O)CN1CCN(CC(=O)O)CCN(CC(=O)O)CCN(CC(=O)O)CC1)C(=O)NCC(=O)NCCC[C@@H]1C(=O)N[C@@H](CCCNC(=N)N)C(=O)N[C@@H](Cc2ccc3ccccc3c2)C(=O)NCC(=O)N[C@H](Cc2ccc(O)cc2)C(=O)N1C [NMe-D-Orn + Gly DOTAAhxAsp] | 38 | 
9 | N=C(N)NCCC[C@@H]1NC(=O)[C@H](CCCN(Cc2ccccc2)C(=O)c2ccc(F)cc2)NC(=O)[C@@H](Cc2ccc(O)cc2)NC(=O)CNC(=O)[C@H](Cc2ccc3ccccc3c2)NC1=O [cyc[D-Tyr-Orn(Bz,FB)-Arg-Nal-Gly]] (HELM PEPTIDE1{[O=C([C@H](Cc1ccc2ccccc2c1)N[*:1])[*:2]].G.[dY].[O=C(c1ccc(F)cc1)N(CCC[C@H](N[*:1])C(=O)[*:2])Cc1ccccc1].R}$PEPTIDE1,PEPTIDE1,1:R1-5:R2$$$V2.0) |  | IC50 [2]: 100 nM
10 | CN1C(=O)[C@@H](Cc2ccc(O)cc2)NC(=O)CNC(=O)[C@H](Cc2ccc3ccccc3c2)NC(=O)[C@H](CCCNC(=N)N)NC(=O)[C@@H]1CCCNC(=N)N [OD1, cyc[D-Tyr-(Me)Arg-Arg-Nal-Gly]] |  | IC50 (Table 1, Nα-monomethylated cyclic pentapeptides, read-out: IC50): 23 nM
11 | CN1C(=O)[C@@H](Cc2ccc(O)cc2)NC(=O)CNC(=O)[C@H](Cc2ccc3ccccc3c2)NC(=O)[C@H](CCCNC(=N)N)NC(=O)[C@H]1CCCNC(=O)CCCCCCC(=O)NCCC[C@@H]1C(=O)N[C@@H](CCCNC(=N)N)C(=O)N[C@@H](Cc2ccc3ccccc3c2)C(=O)NCC(=O)N[C@H](Cc2ccc(O)cc2)C(=O)N1C [NMe-D-Orn n = 6] (I: cyclo([2Nal]G[dY][dNMeOrn]R) / II: cyclo([2Nal]G[dY][dNMeOrn]R); linker I:4-II:4 via Suberoyl) |  | IC50 (read-out: IC50 (affinity)): 2.51 ± 0.7 nM
12 | CN(CCC[C@@H]1C(=O)N[C@@H](CCCNC(=N)N)C(=O)N[C@@H](Cc2ccc3ccccc3c2)C(=O)NCC(=O)N[C@H](Cc2ccc(O)cc2)C(=O)N1C)C(=O)c1ccc(F)cc1 [cyc[D-Tyr-(Me)D-Orn(Me,FB)-Arg-Nal-Gly]] (HELM PEPTIDE1{[O=C([C@H](Cc1ccc2ccccc2c1)N[*:1])[*:2]].G.[dY].[CN(CCC[C@H](C(=O)[*:2])N(C)[*:1])C(=O)c1ccc(F)cc1].R}$PEPTIDE1,PEPTIDE1,1:R1-5:R2$$$V2.0) |  | IC50 (Table 5, D-Orn derivatives, His, Phe, read-out: IC50): 59 nM
13 | N=C(N)NCCC[C@@H]1NC(=O)[C@H](CCCNCc2ccc3ccccc3c2)NC(=O)[C@@H](Cc2ccc(O)cc2)NC(=O)CNC(=O)[C@H](Cc2ccc3ccccc3c2)NC1=O [cyc[D-Tyr-Orn(N2)-Arg-Nal-Gly]] (HELM PEPTIDE1{[dY].[O=C([C@H](CCCNCc1ccc2ccccc2c1)N[*:1])[*:2]].R.[O=C([C@H](Cc1ccc2ccccc2c1)N[*:1])[*:2]].G}$PEPTIDE1,PEPTIDE1,1:R1-5:R2$$$V2.0) |  | IC50 [2]: 49 ± 1 nM
14 | N=C(N)NCCC[C@@H]1NC(=O)[C@H](CCCNC(=O)CON=CCCCC=NOCC(=O)NCCC[C@@H]2NC(=O)[C@@H](Cc3ccc(O)cc3)NC(=O)CNC(=O)[C@H](Cc3ccc4ccccc4c3)NC(=O)[C@H](CCCNC(=N)N)NC2=O)NC(=O)[C@@H](Cc2ccc(O)cc2)NC(=O)CNC(=O)[C@H](Cc2ccc3ccccc3c2)NC1=O [Code A22, glutaric aldehyde-(cyclo[D-Tyr-Orn(amineoxyacetyl)-Arg-2-Nal-Gly])2] | 57.9 | IC50 (read-out: IC50 (affinity)): 58 ± 4.2 nM
15 | CN1C(=O)[C@@H](Cc2ccc(O)cc2)NC(=O)CNC(=O)[C@H](Cc2ccc3ccccc3c2)NC(=O)[C@H](CCCNC(=N)N)NC(=O)[C@H]1CCCNC(=O)CCCC(=O)NCCC[C@@H]1C(=O)N[C@@H](CCCNC(=N)N)C(=O)N[C@@H](Cc2ccc3ccccc3c2)C(=O)NCC(=O)N[C@H](Cc2ccc(O)cc2)C(=O)N1C [NMe-D-Orn n = 3] (I: cyclo([2Nal]G[dY][dNMeOrn]R) / II: cyclo([2Nal]G[dY][dNMeOrn]R); linker I:4-II:4 via Glutaryl) |  | IC50 (read-out: IC50 (affinity)): 4.28 ± 2.3 nM

Source: patent publication US8614290B2, “Cancer imaging and treatment” (Technische Universitat Munchen, priority 2007, dated 2013)
